The source made the active and inactive calls. The rule behind the calls is not given here.
Legend:
[1] = tested on: HL-60; assay: Cytotoxicity against human HL60 cells after 48 hrs by MTT assay; assay type: functional, cell-based; conditions: for IC50: HL-60, 48 h
[2] = tested on: HepG2; assay: Cytotoxicity against human HepG2 cells after 48 hrs by MTT assay; assay type: functional, cell-based; conditions: for IC50: HepG2, 48 h
[3] = target: T1, NAD-dependent protein deacetylase sirtuin-1 (Homo sapiens) (UniProt Q96EB6); assay: Activation of SIRT1 (unknown origin) after 45 mins by NAD/NADH enzyme-based fluorometric assay
T1 sequence (whole entry): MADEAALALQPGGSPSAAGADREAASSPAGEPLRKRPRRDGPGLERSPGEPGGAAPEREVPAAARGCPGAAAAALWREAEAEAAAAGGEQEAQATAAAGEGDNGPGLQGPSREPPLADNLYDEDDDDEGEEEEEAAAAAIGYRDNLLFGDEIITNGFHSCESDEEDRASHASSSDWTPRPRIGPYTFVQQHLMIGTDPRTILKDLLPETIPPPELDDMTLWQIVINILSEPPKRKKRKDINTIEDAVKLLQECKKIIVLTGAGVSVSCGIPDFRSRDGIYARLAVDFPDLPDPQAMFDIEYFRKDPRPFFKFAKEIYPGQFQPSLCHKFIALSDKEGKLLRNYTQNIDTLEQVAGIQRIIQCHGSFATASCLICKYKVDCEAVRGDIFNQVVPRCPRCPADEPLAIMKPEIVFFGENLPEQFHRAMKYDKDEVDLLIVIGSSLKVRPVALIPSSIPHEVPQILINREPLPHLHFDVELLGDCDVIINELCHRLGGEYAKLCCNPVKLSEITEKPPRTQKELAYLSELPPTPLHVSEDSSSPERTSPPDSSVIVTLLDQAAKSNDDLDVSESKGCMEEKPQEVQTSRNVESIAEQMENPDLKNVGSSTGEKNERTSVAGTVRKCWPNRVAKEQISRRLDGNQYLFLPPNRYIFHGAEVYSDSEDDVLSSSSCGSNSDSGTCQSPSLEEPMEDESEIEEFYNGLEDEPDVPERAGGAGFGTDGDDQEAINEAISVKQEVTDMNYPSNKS

Compound | Activity [1] | IC50 [1] | Activity [2] | IC50 [2] | Activity [3]
CC(C)=CC/C=C(\C)[C@H]1CC[C@]2(C)[C@@H]1[C@H](O)C[C@@H]1[C@@]3(C)CC[C@H](O)C(C)(C)[C@@H]3[C@@H](O)C[C@]12C | Dose-dependent effect | 10.3 µM | Dose-dependent effect | 24.3 µM | Active
CC(C)=CCC[C@@](C)(O)[C@H]1CC[C@]2(C)[C@@H]1[C@H](O)C[C@@H]1[C@@]3(C)CC[C@H](O)C(C)(C)[C@@H]3[C@@H](O[C@@H]3O[C@H](CO)[C@@H](O)[C@H](O)[C@H]3O)C[C@]12C |  | > 200 µM |  | > 200 µM | inactive
C=C(CCC=C(C)C)[C@H]1CC[C@]2(C)[C@@H]1[C@H](O)C[C@@H]1[C@@]3(C)CC[C@H](O[C@@H]4O[C@H](CO)[C@@H](O)[C@H](O)[C@H]4O[C@@H]4O[C@H](CO)[C@@H](O)[C@H](O)[C@H]4O)C(C)(C)[C@@H]3CC[C@]12C [GISENOSIDE RK1] |  | 58.1 µM |  | 79.8 µM | Active
C=C(C)[C@@H](O)C/C=C(\C)[C@H]1CC[C@]2(C)[C@@H]1[C@H](O)C[C@@H]1[C@@]3(C)CC[C@H](O[C@@H]4O[C@H](CO)[C@@H](O)[C@H](O)[C@H]4O)C(C)(C)[C@@H]3CC[C@]12C |  | 24.8 µM |  | 44.1 µM | Active
CC(C)=CCC[C@@](C)(O)[C@H]1CC[C@]2(C)[C@@H]1[C@H](O)C[C@@H]1[C@@]3(C)CC[C@H](O)C(C)(C)[C@@H]3[C@@H](O)C[C@]12C |  | 28.7 µM |  | 58.3 µM | Active
CC(C)=CC/C=C(\C)[C@H]1CC[C@]2(C)[C@@H]1[C@H](O)C[C@@H]1[C@@]3(C)CC[C@H](O)C(C)(C)[C@@H]3[C@@H](O[C@@H]3O[C@H](CO)[C@@H](O)[C@H](O)[C@H]3O[C@@H]3O[C@@H](C)[C@H](O)[C@@H](O)[C@H]3O)C[C@]12C |  | 82.8 µM |  | 152 µM | inactive
CC(C)=CCC[C@](C)(O)[C@H]1CC[C@]2(C)[C@@H]1[C@H](O)C[C@@H]1[C@@]3(C)CC[C@H](O)C(C)(C)[C@@H]3[C@@H](O[C@@H]3O[C@H](CO)[C@@H](O)[C@H](O)[C@H]3O)C[C@]12C [GINSENOSIDE RH1] |  | > 200 µM |  | > 200 µM | Active
CC(C)=CCC[C@@](C)(O)[C@H]1CC[C@]2(C)[C@@H]1[C@H](O)C[C@@H]1[C@@]3(C)CC[C@H](O)C(C)(C)[C@@H]3CC[C@]12C |  | 23.4 µM |  | 69.1 µM | Active
CC(C)=CCC[C@](C)(O)[C@H]1CC[C@]2(C)[C@@H]1[C@H](O)C[C@@H]1[C@@]3(C)CC[C@H](O)C(C)(C)[C@@H]3[C@@H](O)C[C@]12C |  | 22.8 µM |  | 43.4 µM | Active
C=C(CCC=C(C)C)[C@H]1CC[C@]2(C)[C@@H]1[C@H](O)C[C@@H]1[C@@]3(C)CC[C@H](O)C(C)(C)[C@@H]3[C@@H](O)C[C@]12C |  | 18.3 µM |  | 42.1 µM | Active
CC(C)=CCC[C@](C)(O)[C@H]1CC[C@]2(C)[C@@H]1[C@H](O)C[C@@H]1[C@@]3(C)CC[C@H](O)C(C)(C)[C@@H]3CC[C@]12C |  | 15.5 µM |  | 45.7 µM | Active
CCC1=C[C@@H]2CN(C1)Cc1c([nH]c3ccccc13)[C@@](C(=O)OC)(c1cc3c(cc1OC)N(C)[C@H]1[C@@](O)(C(=O)OC)[C@H](OC(C)=O)[C@]4(CC)C=CCN5CC[C@]31[C@@H]54)C2 [VINORELBINE] |  | 11.5 µM |  | 23.1 µM | 
CC(=O)OC[C@H]1O[C@@H](O[C@H]2C[C@]3(C)[C@H](C[C@@H](O)[C@@H]4[C@@H]([C@@](C)(O)CCC=C(C)C)CC[C@]43C)[C@@]3(C)CC[C@H](O)C(C)(C)[C@H]23)[C@H](O)[C@@H](O)[C@@H]1O |  | 128 µM |  | 169 µM | Active
CC(C)=CC/C=C(\C)[C@H]1CC[C@]2(C)[C@@H]1[C@H](O)C[C@@H]1[C@@]3(C)CC[C@H](O[C@@H]4O[C@H](CO)[C@@H](O)[C@H](O)[C@H]4O)C(C)(C)[C@@H]3[C@@H](O)C[C@]12C |  | 50.2 µM |  | 86.5 µM | Active

Source: ChEMBL document CHEMBL3632501, “New SIRT1 activator from alkaline hydrolysate of total saponins in the stems-leaves of Panax ginseng” (Bioorg Med Chem Lett, 2015)
